Measured values reported in patent US20160220710A1, “COMPOSITIONS AND METHODS FOR DELIVERING PHARMACEUTICAL AGENTS” (THE REGENTS OF THE UNIVERSITY OF MICHIGAN, priority 2015, published 2016).
Read-outs that look alike come from different tables or passages of the source.

Assays:
[1] = mice; cited from earlier work
NF-κB (p65) = assay: p65 nuclear translocation immunofluorescence; format: cell-based, murine
Method: The murine macrophage cell line RAW 264.7 was purchased from ATCC (Manassas, Va.) and maintained in DMEM (Life Technologies, Carlsbad, Calif.) supplemented with 10% FBS. Soluble CFZ or isolated CLDIs were added at various concentrations in DMEM with 5% FBS to 6-well plates containing 4×10^5 cells/well and incubated (24 h at 37° C. and 5% CO2). Culture supernatants were harvested at 24 h, centrifuged (1500×g for 5 min), and stored (−20° C.) in frozen aliquots prior to analysis. For experiments involving TLR stimulation, cells were washed twice with pre-warmed DPBS to remove extracellular, non-phagocytosed CLDIs or CFZ, and then the cells were serum-starved for 18 h in DMEM. […]
Brightfield and fluorescence (DAPI, FITC, Texas Red and Cy5) images were captured using the Nikon Eclipse Ti (Japan) inverted microscope equipped with a Nikon Digital Sight DS-Fi2 camera (Japan) for brightfield and Photometrics Coolsnap Myo camera (Tucson, Ariz.) for fluorescence. […] For determining the ratio of nucleus-to-cytoplasm p65 fluorescence, ImageJ was used following previously described methods (Fuseler, et al., Microsc. Microanal. 2006, 12, 269-276; Noursadeghi, M. et al., J. Immunol. Methods 2008, 329, 194-200). The average volume of CLDIs was calculated using the area, Feret max and min values of each CLDI acquired from ImageJ. […]

Akt = assay: Western blot of Akt phosphorylated at Ser473; format: cell-based, murine; details: RAW 264.7 cells, 24 h
Method: (§1) The murine macrophage cell line RAW 264.7 was purchased from ATCC (Manassas, Va.) and maintained in DMEM (Life Technologies, Carlsbad, Calif.) supplemented with 10% FBS. Soluble CFZ or isolated CLDIs were added at various concentrations in DMEM with 5% FBS to 6-well plates containing 4×10^5 cells/well and incubated (24 h at 37° C. and 5% CO2). Culture supernatants were harvested at 24 h, centrifuged (1500×g for 5 min), and stored (−20° C.) in frozen aliquots prior to analysis. For experiments involving TLR stimulation, cells were washed twice with pre-warmed DPBS to remove extracellular, non-phagocytosed CLDIs or CFZ, and then the cells were serum-starved for 18 h in DMEM. Supernatants were collected from unstimulated cells and cells stimulated with 200 ng/ml Pam3 or 1 μg/ml LPS in DMEM.

[2] = Baseline vital signs of 8 wk CFZ-treated mice; format: in vivo
Method: Clofazimine (CFZ, Sigma-Aldrich, C8895) was prepared in sesame oil (Shirakiku, Japan, or Roland, China) and Powdered Lab Diet 5001 (PMI International, Inc., St. […] Baik et al., 2011, supra). Control mice were fed with the same diet without CFZ. The animal protocol was approved by the University of Michigan's Animal Care and Use Committee in accordance with the National Institutes of Health guidelines (UCUCA #PRO0005111). The general health status of each PBS/LPS-instilled mice was monitored by measuring body weight and rectal temperature (Microprobe Thermometer, Physitemp Instruments, Clifton, N.J.), and cardiopulmonary function (arterial oxygen saturation, respiratory rate, heart rate and pulse distention) was monitored using MouseOx with a collar clip sensor ([…] Sciences Corp, Oakmont, Pa.) as previously described (Lax S et al., (2014) BMJ open […], et al. (2014) PLoS One 9(6):e98336). In brief, one day before IT instillations (D-1) the hair around the neck of each mouse was removed using Nair (Church & Dwight, Princeton, N.J.) to enable data acquisition using the collar clip sensor. The next day (D 0), immediately prior to the first LPS/PBS dose, and every 24 h afterwards until day 6 (D 6), the body weight, temperature and MouseOx readings were recorded. MouseOx data was acquired by very brief anesthesia of the mouse using 5% isoflurane to facilitate the placement of the collar clip sensor. The mouse was then placed in an enclosed chamber with ambient light and allowed to acclimatize for 5 min at which point the animals had recovered normal activities and physiological readings.

TLR2 = assay: TNFα ELISA after Pam3 stimulation; format: cell-based, murine; details: Pam3, 2 and 4 μM
Method: as §1
(§2) The media of cells with or without 6 h TLR stimulation by Pam3 or LPS was harvested, and TNFα and IL-1RA levels were measured by ELISA (Duoset, R&D Systems, Minneapolis, Minn.) in duplicate wells according to the manufacturer's instructions. The cytokine concentrations were expressed as picogram per milligram of cell lysate. Experiments were repeated three times and values are expressed as the mean±SD.

IκB = assay: Western blot of phosphorylated IκB; format: cell-based, murine; details: 1 h
Method: as §1

[3] = humans; cited from earlier work
[4] = test system: caspase 1, IL-1β, TNFα, IL-1RA; assay: Inflammasome proteins and cytokines in organs of CFZ-treated mice; format: in vivo
Method: Clofazimine (CFZ, Sigma-Aldrich, C8895) was prepared in sesame oil (Shirakiku, Japan, or Roland, China) and Powdered Lab Diet 5001 (PMI International, Inc., St. […] Baik et al., 2011, supra). Control mice were fed with the same diet without CFZ. The animal protocol was approved by the University of Michigan's Animal Care and Use Committee in accordance with the National Institutes of Health guidelines (UCUCA #PRO0005111). Mouse Bronchoalveolar Lavage (BAL) Harvest and Isolation of Alveolar Macrophages, Immunohistochemistry and Imaging, SDS-PAGE and Western Blot, Cytokine Measurements

TLR4 = assay: TNFα ELISA after LPS stimulation; format: cell-based, murine; details: Mus musculus, read-out: inhibition of TNFα production
Method: as §1, §2

[5] = test system: caspase-3 and PARP cleavage; assay: Western blot of caspase 3, cleaved caspase 3 and cleaved PARP; format: cell-based, murine; details: 4 and 10 μM, 24 h
[6] = 2 weeks of oral drug administration

## CC(C)/N=c1\cc2n(-c3ccc(Cl)cc3)c3ccccc3nc-2cc1Nc1ccc(Cl)cc1 [CFZ, 3-(p-chloroanilino)-10-(p-chlorophenyl)-2, 10-dihydro-2-isopropyliminophenazine]
[1]
  pharmacokinetic half-life t1/2: ~7 days
NF-κB (p65); LPS stimulation, 3 h, 4 μM soluble CFZ or 40 μM CLDI
  p65 nuclear translocation: reduced p65 translocation in response to LPS
NF-κB (p65); naïve, no stimulation
  p65 nuclear translocation: did not induce nuclear translocation of p65
Akt
  phosphorylation of Akt: minimally affected phosphorylation of Akt
[2]
  arterial oxygen saturation, higher than control diet-treated: 1.5%
  behavioral signs of sickness: did not display any behavioral signs of sickness
  body temperature: unaffected
  breathing rate, lower than control diet-treated: 10.7%
  heart rate, lower than control diet-treated: 9.3%
  pulse distention, lower than control diet-treated: 16.9%
  weight, less than control diet-treated: 6.7%
[2]; n = 16
  Arterial O2 Saturation (% ± S.D.): 99.01 ± 0.24%
  Body Temperature (° C. ± S.D): 35.52 ± 0.76 °C
  Breathing rate (brpm ± S.D.): 154.29 ± 19.43 brpm
  Heart rate (bpm ± S.D.): 573.94 ± 85.28 bpm
  Pulse distention (μm ± S.D): 425.57 ± 52.32 μm
  Weight (g ± S.D): 24.39 ± 1.92 g
TLR2
  Pam3/TLR2-mediated TNFα production: Pam3/TLR2-mediated TNFα production was not affected
IκB; LPS stimulation
  IκB phosphorylation: inhibited LPS/TLR4-mediated IκB phosphorylation
IκB; Pam3 stimulation
  IκB phosphorylation: the Pam3/TLR2-mediated response was not affected
[3]
  pharmacokinetic half-life t1/2: ~70 days
[4]; 2 and 8 weeks, except liver at 2 weeks
  TNFα expression in organs: unchanged by CFZ at both 2 and 8 weeks
[4]; 2 weeks of CFZ
  cleavage of hepatic caspase 1 and IL-1β: only moderate cleavage of hepatic caspase 1 and IL-1β
[4]; [6]
  IL-1RA in the liver: did not cause significant IL-1RA change in the liver
  spleen and lung IL-1RA levels: slightly increased
[4]; 8 weeks
  IL-1RA levels in the kidney: unchanged
[4]; 8 weeks of CFZ
  hepatic caspase 1 cleavage and IL-1β maturation: significantly reduced
[4]; 8 weeks of oral administration
  IL-1RA expression in liver, spleen and lung: major upregulation of IL-1RA expression
[4]; mouse, in vivo
  IL-1β levels in the spleen, lung and kidney: did not change
TLR4; 2 μM
  inhibition at 2 µM: 51.2%
TLR4; 4 μM
  inhibition at 4 µM: 76.5%
[5]
  PARP cleavage: increased PARP cleavage
